Experimental data reported in patent US20060069132A1, “Azolecarboxamide herbicides” (priority 2004, published 2006).

Tests used:
pigweed = assay: Test B pre-/postemergence herbicide test; format: in vivo, Amaranthus retroflexus; conditions: for Pigweed plant response rating: postemergence
Outline: (§1)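 Seeds were planted and treated preemergence with compounds formulated in a non-phytotoxic solvent mixture containing surfactant, while plants at the 1- to 4-leaf stage (2 to 18 cm) received postemergence sprays. Flooded paddy plants were grown to the 2-leaf stage. After 13 to 15 days in a greenhouse, injury was visually rated 0–100 against untreated controls.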

[1] = test system: smallflower umbrella sedge; assay: Test C flooded paddy test; format: in vivo, Cyperus difformis
velvetleaf = assay: Test B pre-/postemergence herbicide test; format: in vivo, Abutilon theophrasti; conditions: for Velvetleaf plant response rating: postemergence
Outline: as §1

Surinam grass = assay: Test B pre-/postemergence herbicide test; format: in vivo, Urochloa decumbens; conditions: for Surinam Grass plant response rating: postemergence
Outline: as §1

corn = assay: Test B pre-/postemergence herbicide test; format: in vivo, Zea mays; conditions: for Corn plant response rating: postemergence
Outline: as §1

lambsquarters = assay: Test B pre-/postemergence herbicide test; format: in vivo, Chenopodium album; conditions: for Lambsquarters plant response rating: postemergence
Outline: as §1

barnyardgrass [2] = assay: Test B flooded paddy test; format: in vivo, Echinochloa crus-galli; conditions: 1000 g ai/ha, scale 0 to 100 (0 no effect, 100 complete control)
Outline: (§2)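 Paddy species grown to the 2-leaf stage under flooding; blackgrass sprayed postemergence at 2–18 cm (1- to 4-leaf stage). Plants kept in a greenhouse for 13 to 15 days, then visually rated against controls on 0 (no effect) to 100 (complete control).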

wild oat = assay: Test B postemergence herbicide test; format: in vivo, Avena fatua; conditions: postemergence
Outline: (§3)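 Greenhouse test; postemergence application to plants at 1–4 leaves (2–18 cm); paddy species at 2 leaves; evaluated visually vs controls at 13–15 days; scale 0–100 (100 = complete control).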

blackgrass = assay: Test B postemergence herbicide test; format: in vivo, Alopecurus myosuroides; conditions: postemergence, visual rating, scale 0 (no effect) to 100 (complete control)
Outline: as §2

rice [3] = assay: Test B flooded paddy test; format: in vivo, Oryza sativa; conditions: 1000 g ai/ha, scale 0 to 100 (0 no effect, 100 complete control)
Outline: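 Visual ratings, 0 (no effect) to 100 (complete control), made versus controls after 13–15 d greenhouse. Paddy plants treated at 2-leaf stage; postemergence plants at 1- to 4-leaf stage, 2–18 cm tall.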

ducksalad [4] = assay: Test B flooded paddy test; format: in vivo, Heteranthera limosa; conditions: 1000 g ai/ha, scale 0 to 100 (0 no effect, 100 complete control)
Outline: as §2

wheat = assay: Test B postemergence herbicide test; format: in vivo, Triticum aestivum; parameters: key to Wheat plant response rating: 0 = no effect, 100 = complete control; conditions: postemergence
Outline: as §3

barnyardgrass [5] = assay: Test B pre-/postemergence herbicide test; format: in vivo, Echinochloa crus-galli; conditions: for Barnyardgrass plant response rating: postemergence, scale 0 (no effect) to 100 (complete control)
Outline: (§4)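 Test chemicals in a non-phytotoxic solvent mixture with surfactant were applied preemergence to seeded species and postemergence to plants 2-18 cm tall (1- to 4-leaf stage); rice and barnyardgrass were also tested in a flooded paddy at the 2-leaf stage. Visual rating versus controls after 13-15 days in greenhouse, scale 0 (no effect) to 100 (complete control).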

large crabgrass = assay: Test B pre-/postemergence herbicide test; format: in vivo, Digitaria sanguinalis; conditions: for Crabgrass, Large plant response rating: postemergence
Outline: as §1

ducksalad [6] = assay: Test C flooded paddy test; format: in vivo, Heteranthera limosa
cocklebur = assay: Test B pre-/postemergence herbicide test; format: in vivo, Xanthium strumarium; conditions: postemergence, visual rating, scale 0 (no effect) to 100 (complete control)
Outline: as §4

[7] = test system: small flower umbrella sedge; assay: Test B flooded paddy test; format: in vivo, Cyperus difformis; conditions: 1000 g ai/ha, scale 0 to 100 (0 no effect, 100 complete control)
Outline: as §2

giant foxtail = assay: Test B pre-/postemergence herbicide test; format: in vivo, Setaria faberi; conditions: for Foxtail, Giant plant response rating: postemergence
Outline: as §1

barnyardgrass [8] = assay: Test C flooded paddy test; format: in vivo, Echinochloa crus-galli
Outline: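 Plants were grown to the 1- to 4-leaf stage (2–18 cm) and then treated postemergence, or grown to the 2-leaf stage for the flooded paddy test. They were held in a greenhouse for 12 to 14 days and then scored by eye against controls, where 0 is no effect and 100 is complete control.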

rice [9] = assay: Test B pre-/postemergence herbicide test; format: in vivo, Oryza sativa; conditions: 0 = no effect, 100 = complete control, preemergence
Outline: as §1

rice [10] = assay: Test C flooded paddy test; format: in vivo, Oryza sativa
Outline: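 Postemergence sprays applied to plants 2 to 18 cm tall (1- to 4-leaf stage); paddy species grown to 2-leaf stage under flooding. After 12 to 14 days in greenhouse, visual rating versus untreated controls on 0–100 scale (0 no effect, 100 complete control).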

morningglory = assay: Test B pre-/postemergence herbicide test; format: in vivo, Ipomoea coccinea; conditions: for Morningglory plant response rating: postemergence
Outline: as §4

[11] = 125 g ai/ha, 0 = no effect, 100 = complete control, preemergence
[12] = 500 g ai/ha, visual rating, 0 = no effect, 100 = complete control, preemergence
[13] = 125 g ai/ha, visual rating, scale 0 (no effect) to 100 (complete control)
[14] = 500 g ai/ha, scale 0 to 100, 0 is no effect, 100 is complete control
[15] = 125 g ai/ha, scale 0 to 100 (0 no effect, 100 complete control)
[16] = 250 g ai/ha, scale of 0 to 100, 0 is no effect, 100 is complete control
[17] = 500 g ai/ha, visual rating after 12 to 14 days, scale 0 to 100 (0 no effect, 100 complete control)

CCN(C)C(=O)c1cncc(NC(=O)c2cc(C(C)(C)C)nn2CC)c1 [Compound 263]
Pigweed plant response rating (0 to 100 scale) (pigweed; [11]): 80 | Plant response rating, Pigweed (pigweed; [12]): 100 | Pigweed plant response rating (pigweed; [13]): 60 | Pigweed plant response rating (pigweed; [14]): 90 | Sedge, Umbrella plant response rating ([1]; 62 g ai/ha, scale 0 to 100): 0 | Sedge, Umbrella plant response rating [1, 15]: 0 | Sedge, Umbrella plant response rating [1, 16]: 30 | Plant response rating, Sedge, Umbrella [1, 17]: 50 | Velvetleaf plant response rating (0 to 100 scale) (velvetleaf; [11]): 10 | Plant response rating, Velvetleaf (velvetleaf; [12]): 90 | Velvetleaf plant response rating (velvetleaf; [13]): 20 | Velvetleaf plant response rating (velvetleaf; [14]): 20 | Surinam Grass plant response rating (0 to 100 scale) (Surinam grass; [11]): 10 | Plant response rating, Surinam Grass (Surinam grass; [12]): 30 | Surinam Grass plant response rating (Surinam grass; [13]): 10 | Surinam Grass plant response rating (Surinam grass; [14]): 10 | Corn plant response rating (0 to 100 scale) (corn; [11]): 0 | Plant response rating, Corn (corn; [12]): 0 | Corn plant response rating (corn; [13]): 0 | Corn plant response rating (corn; [14]): 10 | Lambsquarters plant response rating (0 to 100 scale) (lambsquarters; [11]): 70 | Plant response rating, Lambsquarters (lambsquarters; [12]): 100 | Lambsquarters plant response rating (lambsquarters; [13]): 70 | Lambsquarters plant response rating (lambsquarters; [14]): 80 | Barnyardgrass plant response rating (barnyardgrass [2]): 60 | Oat, Wild plant response rating (wild oat; [13]): 10 | Oat, Wild plant response rating (wild oat; [14]): 20 | Blackgrass plant response rating (blackgrass; 125 g ai/ha): 10 | Blackgrass plant response rating (blackgrass; 500 g ai/ha): 20 | Rice plant response rating (rice [3]): 70 | Ducksalad plant response rating (ducksalad [4]): 90 | Wheat plant response rating (wheat; [13]): 10 | Wheat plant response rating (wheat; [14]): 20 | Barnyardgrass plant response rating (0 to 100 scale) (barnyardgrass [5]; [11]): 10 | Plant response rating, Barnyardgrass (barnyardgrass [5]; [12]): 40 | Barnyardgrass plant response rating (barnyardgrass [5]; 125 g ai/ha, visual rating): 0 | Barnyardgrass plant response rating (barnyardgrass [5]; 500 g ai/ha, visual rating): 10 | Crabgrass, Large plant response rating (0 to 100 scale) (large crabgrass; [11]): 10 | Plant response rating, Crabgrass, Large (large crabgrass; [12]): 60 | Crabgrass, Large plant response rating (large crabgrass; [13]): 10 | Crabgrass, Large plant response rating (large crabgrass; [14]): 20 | Ducksalad plant response rating (ducksalad [6]; 62 g ai/ha, scale 0 to 100): 0 | Ducksalad plant response rating (ducksalad [6]; [15]): 0 | Ducksalad plant response rating (ducksalad [6]; [16]): 75 | Plant response rating, Ducksalad (ducksalad [6]; [17]): 90 | Cocklebur plant response rating (cocklebur; 125 g ai/ha): 0 | Cocklebur plant response rating (cocklebur; 500 g ai/ha): 10 | Sedge, Umbrella plant response rating [7]: 80 | Foxtail, Giant plant response rating (0 to 100 scale) (giant foxtail; [11]): 0 | Plant response rating, Foxtail, Giant (giant foxtail; [12]): 20 | Foxtail, Giant plant response rating (giant foxtail; [13]): 0 | Foxtail, Giant plant response rating (giant foxtail; [14]): 20 | Barnyardgrass plant response rating (barnyardgrass [8]; 62 g ai/ha, scale 0 to 100 (0 no effect, 100 complete control)): 0 | Barnyardgrass plant response rating (barnyardgrass [8]; [15]): 0 | Barnyardgrass plant response rating (barnyardgrass [8]; [16]): 0 | Plant response rating, Barnyardgrass (barnyardgrass [8]; [17]): 0 | Rice plant response rating (0 to 100 scale) (rice [9]; 125 g ai/ha): 0 | Plant response rating, Rice (rice [9]; 500 g ai/ha, visual rating): 10 | Rice plant response rating (rice [10]; 62 g ai/ha, scale 0 to 100): 0 | Rice plant response rating (rice [10]; [15]): 0 | Rice plant response rating (rice [10]; [16]): 0 | Plant response rating, Rice (rice [10]; [17]): 25 | Morningglory plant response rating (0 to 100 scale) (morningglory; [11]): 0 | Plant response rating, Morningglory (morningglory; [12]): 0 | Morningglory plant response rating (morningglory; [13]): 0 | Morningglory plant response rating (morningglory; [14]): 20
